Tested on: Karpas 299 human T cell lymphoma tumor
Assay: Karpas 299 xenograft efficacy study
Type: in vivo, mice
Details: IV q2dx3: VAR2-Compound O 12, VAR2 12, Compound 886 0.312 mg/kg
Description: Female C.B-17/IcrHsd-Prkdcscid mice (Harlan Laboratories) were implanted subcutaneously in the back with the Karpas 299 human T cell lymphoma tumor cell line. Karpas 299 was established from the peripheral blood of a person with T cell non-Hodgkin's lymphoma in 1986; now classed as CD30+ anaplastic large cell lymphoma (ALCL). The lab stocks were mycoplasma negative. […] The mean tumor volume on treatment day (day 21) was greater than 150 mm^3. Test articles were administered intravenously on Day 1, 3, and 6 (total of three injections) at the doses indicated in the study grouping table. Body weights and tumor volumes were measured every Monday, Wednesday, and Friday. Animals remained on study until their tumors reached 800 mm^3 in size or they otherwise required euthanasia due to achieving a humane endpoint.

## CN[C@H](C(=O)N[C@H](C(=O)N(C)[C@H](/C=C(\C)C(=O)NS(=O)(=O)c1ccc(N)cc1)C(C)C)C(C)(C)C)C(C)(C)c1ccccc1 [Compound 886, (S,E)-N-(4-Aminophenylsulfonyl)-2,5-dimethyl-4-((S)—N,3,3-trimethyl-2-((S)-3-methyl-2-(methylamino)-3-phenylbutanamido)butanamido)hex-2-enamide]
VAR2 versus, Study Day 21
  tumor volume, two-way ANOVA Bonferroni posttests: ns (P > 0.05 = ns (not significant))
VAR2 versus, Study Day 23
  tumor volume, two-way ANOVA Bonferroni posttests: ns (P > 0.05 = ns (not significant))
VAR2 versus, Study Day 26
  tumor volume, two-way ANOVA Bonferroni posttests: ns (P > 0.05 = ns (not significant))
VAR2 versus, Study Day 28
  tumor volume, two-way ANOVA Bonferroni posttests: * (P < 0.05 = *)
VAR2 versus, Study Day 30
  tumor volume, two-way ANOVA Bonferroni posttests: ** (P < 0.01 = **)
Vehicle versus, Study Day 21
  tumor volume, two-way ANOVA Bonferroni posttests: ns (P > 0.05 = ns (not significant))
Vehicle versus, Study Day 23
  tumor volume, two-way ANOVA Bonferroni posttests: ns (P > 0.05 = ns (not significant))
Vehicle versus, Study Day 26
  tumor volume, two-way ANOVA Bonferroni posttests: * (P < 0.05 = *)
Vehicle versus, Study Day 28
  tumor volume, two-way ANOVA Bonferroni posttests: *** (P < 0.001 = ***)
Vehicle versus, Study Day 30
  tumor volume, two-way ANOVA Bonferroni posttests: *** (P < 0.001 = ***)
